The results in this text go back to patent US10851102B2, “Imidazole and triazole containing bicyclic compounds as JAK inhibitors” (THERAVANCE BIOPHARMA R&D IP, LLC, priority 2019, dated 2020).

For this test, the system named is IL-2 stimulated pSTAT5 in CD4+ T cells isolated from murine splenocytes (JAK3). Kind of test: Inhibition of IL-2 stimulated pSTAT5 in CD4+ T cells isolated from murine splenocytes. Format: cell-based. To be noted: Mus musculus, IL-2 7 ng/ml, read-out: pIC50, inhibition of IL-2 stimulated pSTAT5 (converted).

Turning to `C=CC(=O)N1CC(COc2cc(-c3cc(F)c(O)cc3CC)cn3cncc23)C1` [Example 13, 1-(3-(((6-(2-ethyl-5-fluoro-4-hydroxyphenyl)imidazo[1,5-a]pyridin-8-yl)oxy)methyl)azetidin-1-yl)prop-2-en-1-one], the IC50 was less than 1000 nM.
The result for `C=CC(=O)N1CC(COc2cc(-c3ccc(O)c(Cl)c3)cn3cncc23)C1` [Example 12, 1-(3-(((6-(3-chloro-4-hydroxyphenyl)imidazo[1,5-a]pyridin-8-yl)oxy)methyl)azetidin-1-yl)prop-2-en-1-one] reads less than 1000 nM.
